Laboratory results reported in the NIST ThermoML archive (doi:10.1016/j.jct.2005.02.004).
± gives the expanded uncertainty stated by the source.

Conditions: Liquid, Vibrating tube method

CO [methanol]
Conditions | mass density [kg/m3]
298.26 K, 235 kPa | 785.98 ± 0.42
298.26 K, 5000 kPa | 790.69 ± 0.43
298.26 K, 9999 kPa | 795.4 ± 0.44
298.26 K, 15013 kPa | 799.88 ± 0.45
298.26 K, 19987 kPa | 804.1 ± 0.47
298.26 K, 25008 kPa | 808.17 ± 0.48
298.26 K, 29997 kPa | 812.04 ± 0.5
298.26 K, 34991 kPa | 815.76 ± 0.52
298.26 K, 39981 kPa | 819.34 ± 0.53
323.22 K, 270 kPa | 762.14 ± 0.42
323.22 K, 4990 kPa | 767.53 ± 0.43
323.22 K, 9984 kPa | 772.87 ± 0.45
323.22 K, 14982 kPa | 777.91 ± 0.46
323.22 K, 19989 kPa | 782.69 ± 0.48
323.22 K, 24986 kPa | 787.21 ± 0.5
323.22 K, 29995 kPa | 791.53 ± 0.52
323.22 K, 34987 kPa | 795.64 ± 0.54
323.22 K, 39993 kPa | 799.6 ± 0.56
348.25 K, 366 kPa | 737.29 ± 0.43
348.25 K, 4987 kPa | 743.46 ± 0.44
348.25 K, 9986 kPa | 749.65 ± 0.46
348.25 K, 14991 kPa | 755.42 ± 0.47
348.25 K, 20004 kPa | 760.84 ± 0.49
348.25 K, 25020 kPa | 765.94 ± 0.52
348.25 K, 30013 kPa | 770.76 ± 0.54
348.25 K, 34989 kPa | 775.32 ± 0.56
348.25 K, 40000 kPa | 779.7 ± 0.58
373.26 K, 534 kPa | 710.55 ± 0.43
373.26 K, 4983 kPa | 717.67 ± 0.44
373.26 K, 9990 kPa | 724.99 ± 0.46
373.26 K, 14998 kPa | 731.69 ± 0.49
373.26 K, 19985 kPa | 737.88 ± 0.51
373.26 K, 24994 kPa | 743.68 ± 0.53
373.26 K, 29997 kPa | 749.13 ± 0.56
373.26 K, 35001 kPa | 754.27 ± 0.58
373.26 K, 39996 kPa | 759.14 ± 0.61
398.28 K, 934 kPa | 680.93 ± 0.44
398.28 K, 4984 kPa | 689 ± 0.45
398.28 K, 9998 kPa | 697.91 ± 0.47
398.28 K, 14986 kPa | 705.88 ± 0.5
398.28 K, 19987 kPa | 713.16 ± 0.53
398.28 K, 24992 kPa | 719.87 ± 0.55
398.28 K, 29991 kPa | 726.11 ± 0.58
398.28 K, 35005 kPa | 731.99 ± 0.61
398.28 K, 40004 kPa | 737.47 ± 0.64
